According to publication PMC1968811, “Pharmacokinetics in melanoma-bearing mice of 5-dihydroxyboryl-6-propyl-2-thiouracil (BPTU), a candidate compound for boron neutron capture therapy” (British Journal of Cancer, 1994):
Each block holds one compound with its values, some of them ahead of it.

Columns and labels:
[1] = system: non-pigmented B16.013 subclone; parameters: method as in R. Verrijk et al., 1991, unpublished data; settings: non-pigmented B16.013 cells; ref R. Verrijk et al., 1991, unpublished data; cited from earlier work
melanotic B16 cells = settings: cited from earlier work; for Retention in cells in vitro: after washing, ref R. Verrijk et al., 1991, unpublished data
[2] = system: subcutaneous fibrosarcoma RIF-1; assay: BSH boron pharmacokinetics in blood and RIF-1 tumour tissue; format: in vivo, C3H/Km mice
[3] = Boron distribution in blood and normal tissues (skin, muscle, brain, kidneys, liver) of tumour-bearing mice; format: in vivo, C57/BL mice
Excerpt: (§1) Br. J. Cancer (1994), 69, 641 647 ? Macmillan Press Ltd., 1994~~~~~~~~~~~~~~~~~~~~~~~~~~~~~~~~~~~~~~~~~~~~~~~~~~~~~~~~~~~~~~~~~~~~~~~~~~~~~~~~~~~~~ Pharmacokinetics in melanoma-bearing- mice of 5-dihydroxyboryl- 6-propyl-2-thiouracil (BPTU), a candidate compound for boron neutron capture therapy R. Verrijkl, I.J.H. Smolders', R. Huiskamp2, P.R. Gavin3,. K.H.I. Philipp2 & A.C. Begg' 'The Netherlands Cancer Institute, Division of Experimental Therapy, Plesmanlaan 121, 1066 CX, Amsterdam, The Netherlands; 2The Netherlands Energy Research Foundation, Division of Radiobiology and Radioecology, PO Box 1, 1755 SG, Petten, The Netherlands; 3Department of Veterinary Clinical Medicine and Surgery and Washington Animal Disease and Diagnostic Laboratory, Washington State University, Pullman, Washington 99164-6610, USA. Summary Blood pharmacokinetics and tissue distribution of 5-dihydroxyboryl-6-propyl-2-thiouracil (BPTU), a boron carrier with postulated melanin-seeking properties for boron neutron capture therapy, were deter- mined in C57/BL mice with subcutaneous pigmented or non-pigmented B16 melanomas. Borocaptate sodium (BSH) was used as a boron compound without melanin-seeking properties in a comparative biodistribution study in the same animal tumour models. […] BPTU was found in large concentra- tions in kidney and liver. Brain boron was approximately 10-fold lower than tumour boron. […] Owing to solubility limits, tumour boron concentrations in this mouse study were too low for effective application of BNCT. However, the high tumour-to-blood and tumour-to-normal tissues ratios indicate that, with appropriate formulation, BPTU could be a promising candidate for clinical BNCT. […] The selective accumulation of "'B-containing compounds in tumours and subsequent irradiation with low-energy (thermal) neutrons form the basis of BNCT. The short track lengths of `'B(n,a)7Li fission pro- ducts (9 and 5 iLm for a and 7Li respectively) offer partial restriction of the radiation dose to the "'B-containing cells. Additional advantages owing to the high-LET (linear energy transfer) character of the emitted radiation are higher biological efficacies compared with photons or X-rays and less effect of hypoxia or cell cycle distribution on the therapeutic effect. The relatively high resistance of melanomas for photon therapy and the presence of a bio- chemical rationale for boron targeting explain the efforts made in this area (Mishima et al., 1989; Madoc Jones et al., 1990). The often high rate of melanogenesis in melanoma cells has led to the development of several boron drugs with melanoma-seeking capacity. […]

[4] = Blood boron pharmacokinetics in B16 melanoma-bearing mice (ICP-AES, two-compartment fit); format: in vivo, C57/BL mice; settings: for Cmax blood, maximum boron concentration in blood: calculated values, BSH 50 mg kg-1 boron i.v.
Excerpt: as §1, with “cells.” for “cells. Additional advantages owing to the high-LET (linear energy transfer) character of the emitted radiation are higher biological efficacies compared with photons or X-rays and less effect of hypoxia or cell cycle distribution on the therapeutic effect. The relatively high resistance of melanomas for photon therapy and the presence of a bio- chemical rationale for boron targeting explain the efforts made in this area (Mishima et al., 1989; Madoc Jones et al., 1990). The often high rate of melanogenesis in melanoma cells has led to the development of several boron drugs with melanoma-seeking capacity.”

[5] = system: pigmented B16 melanoma (B16wt); assay: Tumour boron uptake and retention in subcutaneous pigmented B16 tumours; format: in vivo, C57/BL mice; settings: for Tumour boron conc. / Tumour-to-blood ratio (boron): BSH 50 mg kg-1 boron single dose, B16.wt
Excerpt: (§2) Br. J. Cancer (1994), 69, 641 647 ? Macmillan Press Ltd., 1994~~~~~~~~~~~~~~~~~~~~~~~~~~~~~~~~~~~~~~~~~~~~~~~~~~~~~~~~~~~~~~~~~~~~~~~~~~~~~~~~~~~~~ Pharmacokinetics in melanoma-bearing- mice of 5-dihydroxyboryl- 6-propyl-2-thiouracil (BPTU), a candidate compound for boron neutron capture therapy R. Verrijkl, I.J.H. Smolders', R. Huiskamp2, P.R. Gavin3,. K.H.I. Philipp2 & A.C. Begg' 'The Netherlands Cancer Institute, Division of Experimental Therapy, Plesmanlaan 121, 1066 CX, Amsterdam, The Netherlands; 2The Netherlands Energy Research Foundation, Division of Radiobiology and Radioecology, PO Box 1, 1755 SG, Petten, The Netherlands; 3Department of Veterinary Clinical Medicine and Surgery and Washington Animal Disease and Diagnostic Laboratory, Washington State University, Pullman, Washington 99164-6610, USA. Summary Blood pharmacokinetics and tissue distribution of 5-dihydroxyboryl-6-propyl-2-thiouracil (BPTU), a boron carrier with postulated melanin-seeking properties for boron neutron capture therapy, were deter- mined in C57/BL mice with subcutaneous pigmented or non-pigmented B16 melanomas. Borocaptate sodium (BSH) was used as a boron compound without melanin-seeking properties in a comparative biodistribution study in the same animal tumour models. […] BPTU was found in large concentra- tions in kidney and liver. Brain boron was approximately 10-fold lower than tumour boron. […] Owing to solubility limits, tumour boron concentrations in this mouse study were too low for effective application of BNCT. However, the high tumour-to-blood and tumour-to-normal tissues ratios indicate that, with appropriate formulation, BPTU could be a promising candidate for clinical BNCT. […] The selective accumulation of "'B-containing compounds in tumours and subsequent irradiation with low-energy (thermal) neutrons form the basis of BNCT. The short track lengths of `'B(n,a)7Li fission pro- ducts (9 and 5 iLm for a and 7Li respectively) offer partial restriction of the radiation dose to the "'B-containing cells. Additional advantages owing to the high-LET (linear energy transfer) character of the emitted radiation are higher biological efficacies compared with photons or X-rays and less effect of hypoxia or cell cycle distribution on the therapeutic effect. The relatively high resistance of melanomas for photon therapy and the presence of a bio- chemical rationale for boron targeting explain the efforts made in this area (Mishima et al., 1989; Madoc Jones et al., 1990). The often high rate of melanogenesis in melanoma cells has led to the development of several boron drugs with melanoma-seeking capacity. The L-isomer of boronphenylalanine (BPA) is taken up by melanoma cells both in vitro and in vivo (Ichihashi et al., 1982; 1989; Coderre et al., 1987; 1990; Allen et al., 1992; Packer et al., 1992). Animal studies on BNCT efficacy and normal tissue tolerance with BPA have also been performed (Coderre et al., 1991; 1992; Hiratsuka et al., 1991). Although the uptake of BPA in melanoma cells is well accepted, incor- poration of boron into melanin might not occur, resulting in poor retention. Boronated thiouracils that enter the melanogenesis pathway at a different point from BPA have been recently synthesised, aiming at boron incorporation into the melanin for better retention (Tjarks & Gabel, 1991). […] Since the radiation dose in BNCT is mainly dependent on cellular boron levels, amelanotic tumour cell subpopulations may limit the efficacy of boron compounds that target the pigmented tumour cell fraction only. […] Begg. Received 1 September 1993; and in revised form 15 November 1993. into cell populations with different pigmentation levels in experimental tumour models, melanomas often increase in the amelanotic fraction with tumour progression and metas- tasis development in humans (Guiliano et al., 1982; Elder, 1987). It is therefore important to establish the capacity of melanoma-seeking boron drugs to target the amelanotic cells in a tumour. […]

[6] = system: non-pigmented B16.013 melanoma; assay: Tumour boron uptake and retention in subcutaneous non-pigmented B16.013 tumours; format: in vivo, C57/BL mice; settings: for Tumour boron conc. / Tumour-to-blood ratio (boron): BSH 50 mg kg-1 boron single dose, B16.013
Excerpt: as §2

[7] = Solubility limit in formulation for injection; format: physicochemical; settings: limited the dose administered to mice
Excerpt: Br. J. Cancer (1994), 69, 641 647 ? Macmillan Press Ltd., 1994~~~~~~~~~~~~~~~~~~~~~~~~~~~~~~~~~~~~~~~~~~~~~~~~~~~~~~~~~~~~~~~~~~~~~~~~~~~~~~~~~~~~~ Pharmacokinetics in melanoma-bearing- mice of 5-dihydroxyboryl- 6-propyl-2-thiouracil (BPTU), a candidate compound for boron neutron capture therapy R. Verrijkl, I.J.H. Smolders', R. Huiskamp2, P.R. Gavin3,. K.H.I. Philipp2 & A.C. Begg' 'The Netherlands Cancer Institute, Division of Experimental Therapy, Plesmanlaan 121, 1066 CX, Amsterdam, The Netherlands; 2The Netherlands Energy Research Foundation, Division of Radiobiology and Radioecology, PO Box 1, 1755 SG, Petten, The Netherlands; 3Department of Veterinary Clinical Medicine and Surgery and Washington Animal Disease and Diagnostic Laboratory, Washington State University, Pullman, Washington 99164-6610, USA. Summary Blood pharmacokinetics and tissue distribution of 5-dihydroxyboryl-6-propyl-2-thiouracil (BPTU), a boron carrier with postulated melanin-seeking properties for boron neutron capture therapy, were deter- mined in C57/BL mice with subcutaneous pigmented or non-pigmented B16 melanomas. Borocaptate sodium (BSH) was used as a boron compound without melanin-seeking properties in a comparative biodistribution study in the same animal tumour models. […] BPTU was found in large concentra- tions in kidney and liver. Brain boron was approximately 10-fold lower than tumour boron. […]

[8] = BSH 50 mg kg-1 boron i.v., 12 min after administration

Compound: O=c1[nH]c(=S)[nH]cc1B(O)O [BTU, boronthiouracil]
Retention in cells in vitro [1]: showed no retention at all in either cell line | Retention in cells in vitro (melanotic B16 cells; melanotic B16 cells): showed no retention at all in either cell line

Tumour-to-blood ratios of boron ([2]; BSH 50 mg kg-1 boron, RIF-1 fibrosarcoma, 24 or 48 h): not significantly above unity | Boron tumour-to-blood ratios ([2]; BSH, at times before 24 h, tumour model not named at the place): below 1 | Liver boron level [3, 8]: up to 230 Agg- g | Liver boron relative to blood boron [3, 8]: 8 fold | Liver-to-kidney boron concentration ratio ([3]; BSH, during the tissue distribution phase): 2-4 | Mean ratio Cmax tumour/injected dose ([5]; BSH 50 mg kg-1 boron i.v., B16wt tumour): 0.7 | Tumour boron conc. ([5]; 4 h): 7.6 g g-g' | Tumour-to-blood ratio (boron) ([5]; 4 h): 1.1 | Tumour boron conc. ([5]; 24 h): 2.3 g g-g' | Tumour-to-blood ratio (boron) ([5]; 24 h): 3.4 | Cmax tumour, maximum boron concentration in tumour ([5]; highest measured values, BSH 50 mg kg-1 boron i.v., B16wt tumour): 32.8 3.52 g mg- | Mean ratio Cmax tumour/injected dose ([6]; BSH 50 mg kg-1 boron i.v., B16.013 tumour): 1.0 | Tumour boron conc. ([6]; 4 h): 10.5 g g-g' | Tumour-to-blood ratio (boron) ([6]; 4 h): 1.5 | Tumour boron conc. ([6]; 24 h): 2.2 g g-g' | Tumour-to-blood ratio (boron) ([6]; 24 h): 4.0 | Cmax tumour, maximum boron concentration in tumour ([6]; highest measured values, BSH 50 mg kg-1 boron i.v., B16.013 tumour): 49.8 11.0 g mg-
Compound: Borocaptate sodium [BSH]
Cmax values relative to BPTU ([4]; BSH 50 vs BPTU 3.15 mg kg-1 boron): approximately 10 fold | Cmax blood, maximum boron concentration in blood ([4]; B16wt-bearing mice): 59.4 ± 10.6 g mli | Cmax blood, maximum boron concentration in blood ([4]; B16.013-bearing mice): 54.1 ± 14.6 g mli | Retention of boron in tumour ([5]; BSH 50 mg kg-1 boron, 24 and 48 h, pigmented B16): retained in B16 tumours at 24 and 48 h, irrespective of pigmentation degree | Levels of boron in cells vs culture medium (melanotic B16 cells; melanotic B16 cells incubated with BSH, ref Verrijk et al., 1992): higher than in the culture medium only after 16 h incubation | Cellular boron retention after washing (melanotic B16 cells; melanotic B16 cells, washing with boron-free culture medium for 4 h, ref Verrijk et al., 1992): Partial cel- lular boron retention | Retention of boron in tumour ([6]; BSH 50 mg kg-1 boron, 24 and 48 h, non-pigmented B16): retained in B16 tumours at 24 and 48 h, irrespective of pigmentation degree

Solubility [7]: insufficient solubility | Change of mean tumour boron concentration, multiple vs single BPTU administration ([5]; 4 x 3.15 vs 3.15 mg kg-1 boron, 24 h, pigmented B16): increased more than three times
Compound: CCCc1[nH]c(=S)[nH]c(=O)c1B(O)O [BPTU, 5-dihydroxyboryl-6-propyl-2-thiouracil]
Retention in cells in vitro [1]: failed to be retained | Boron in kidney and liver ([3]; BPTU single doses): found in large concentrations in kidney and liver | Retention in cells in vitro (melanotic B16 cells; melanotic B16 cells): better retained in the cells than BPA or BSH | Tumour boron vs blood boron profile ([6]; BPTU single dose, non-pigmented tumour variant): tumour boron levels closely followed blood levels
